Measurements: PubChem BioAssay AID330 (DTP/NCI, 2004)
Where “and” joins values, the source holds several entries; their conditions need not be identical. Equal entries are not always repeated. Toxic doses and inconclusive results are not listed. How the source made its calls: active means survival T/C of 150% or more; inactive means T/C below 125% in these data.

Test system: P388 leukemia ip, CD2F1 mice, survival T/C
Assay: NCI In Vivo Anticancer Drug Screen. Data for tumor model P388 Leukemia (intraperitoneal) in CD2F1 (CDF1) mice
Conditions: endpoint: median survival time, higher = longer survival
Outline: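 Mice carrying the transplanted tumor received test compound or vehicle. Survival was recorded in each group, and the value is the treated-group measurement divided by that of the vehicle-treated control group.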

[1] = dose: 25.0 mg/kg/injection, schedule: Q01DX009 (ip), vehicle: saline with Tween-80
[2] = dose: 25.0 mg/kg/injection, schedule: Q04DX003 (ip), vehicle: saline with Tween-80
[3] = dose: 50.0 mg/kg/injection, schedule: Q01DX009 (ip), vehicle: saline with Tween-80
[4] = dose: 50.0 mg/kg/injection, schedule: Q04DX003 (ip), vehicle: saline with Tween-80
[5] = dose: 100.0 mg/kg/injection, schedule: Q01DX009 (ip), vehicle: saline with Tween-80
[6] = dose: 100.0 mg/kg/injection, schedule: Q04DX003 (ip), vehicle: saline with Tween-80
[7] = dose: 200.0 mg/kg/injection, schedule: Q01DX009 (ip), vehicle: saline with Tween-80
[8] = dose: 50.0 mg/kg/injection, schedule: Q01DX005 (ip), vehicle: saline with Tween-80
[9] = dose: 100.0 mg/kg/injection, schedule: Q01DX005 (ip), vehicle: saline with Tween-80
[10] = dose: 200.0 mg/kg/injection, schedule: Q01DX005 (ip), vehicle: saline with Tween-80
[11] = dose: 12.5 mg/kg/injection, schedule: Q01DX009 (ip), vehicle: saline with Tween-80
[12] = dose: 6.25 mg/kg/injection, schedule: Q01DX009 (ip), vehicle: saline with Tween-80
[13] = dose: 100.0 mg/kg/injection, schedule: Q01DX009 (ip), vehicle: saline
[14] = dose: 200.0 mg/kg/injection, schedule: Q01DX009 (ip), vehicle: saline
[15] = dose: 1.56 mg/kg/injection, schedule: Q01DX009 (ip), vehicle: saline with Tween-80

Measured: T/C

Cc1ccccc1S(=O)(=O)F
inactive: [1] 100 % of control | [2] 100 % of control | [3] 100 % of control | [4] 100 % of control | [5] 109 % of control | [6] 100 % of control

O=C(CCl)OCCN1Cc2nc3sc4c(c3c(=O)n2CC1=O)CCCC4
inactive: [3] 97 % of control | [5] 94 % of control | [7] 112 % of control

O=C(/C=C/c1ccc2c(c1)OCO2)c1cc(Cl)ccc1O
inactive: [8] 93 % of control | [9] 98 % of control | [10] 102 % of control

O=C(O)CC1SC(c2ccccc2Cl)N(/N=C/c2ccccc2Cl)C1=O (configuration not stated)
inactive: [11] 102 % of control | [1] 98 % of control | [3] 99 % of control and 87 % of control

O=C1c2ccccc2C(=O)N1Cc1ccccc1[N+](=O)[O-]
inactive: [12] 95 % of control | [11] 88 % of control | [1] 89 % of control | [13] 98 % of control | [14] 102 % of control

CC1=NN(C(=O)c2ccncc2)C(=O)C1N=Nc1ccccc1C (configuration not stated)
inactive: [3] 95 % of control | [5] 94 % of control | [7] 94 % of control

Cc1cc2c(=O)cc(-c3ccc([N+](=O)[O-])cc3)oc2c(C#N)c1C
inactive: dose: 60.0 mg/kg/injection, schedule: Q01DX005 (ip), vehicle: Klucel (hydroxypropylcellulose) (HPC) 92 % of control | dose: 120.0 mg/kg/injection, schedule: Q01DX005 (ip), vehicle: Klucel (hydroxypropylcellulose) (HPC) 94 % of control | dose: 240.0 mg/kg/injection, schedule: Q01DX005 (ip), vehicle: Klucel (hydroxypropylcellulose) (HPC) 87 % of control

Nc1ncnc2c1cnn2C1OC(CO)C(O)C1O (configuration not stated)
inactive: dose: 37.5 mg/kg/injection, schedule: Q01DX009 (ip), vehicle: saline with Tween-80 124 % of control
active: dose: 16.5 mg/kg/injection, schedule: Q01DX009 (ip), vehicle: saline with Tween-80 152 % of control | [1] 154 % of control

CCSc1nc2c(N)nc(N)nc2[nH]c1=O
inactive: dose: 100.0 mg/kg/injection, schedule: Q04DX003 (ip), vehicle: Klucel (hydroxypropylcellulose) (HPC) 99 % of control | dose: 200.0 mg/kg/injection, schedule: Q04DX003 (ip), vehicle: Klucel (hydroxypropylcellulose) (HPC) 86 % of control

CS(=O)(=O)c1nnc(-c2cc[n+]([O-])cc2)s1
inactive: dose: 6.25 mg/kg/injection, schedule: Q01DX005 (ip), vehicle: Klucel (hydroxypropylcellulose) (HPC) 114 % of control | dose: 12.5 mg/kg/injection, schedule: Q01DX005 (ip), vehicle: Klucel (hydroxypropylcellulose) (HPC) 114 % of control

COc1ccc(S(=O)(=O)F)cc1NC(=O)Oc1ccccc1
inactive: dose: 60.0 mg/kg/injection, schedule: Q01DX005 (ip), vehicle: saline with Tween-80 105 % of control | dose: 120.0 mg/kg/injection, schedule: Q01DX005 (ip), vehicle: saline with Tween-80 113 % of control | dose: 240.0 mg/kg/injection, schedule: Q01DX005 (ip), vehicle: saline with Tween-80 111 % of control

O=C(CCCCC(=O)Nc1ccc2c(=O)c3ccccc3[nH]c2c1)Nc1ccc2c(=O)c3ccccc3[nH]c2c1
inactive: [8] 99 % of control | [9] 104 % of control | [10] 104 % of control

CCON(C=Nc1ccc(Cl)c(Cl)c1)c1ccc(Cl)c(Cl)c1
inactive: dose: 50.0 mg/kg/injection, schedule: Q01DX009 (ip), vehicle: saline 103 % of control | [13] 102 % of control | [14] 91 % of control

O=C(O)CN(CCN(CC(=O)O)CC(=O)O)CC(=O)O
inactive: dose: 100.0 mg/kg/injection, schedule: Q04DX003 (ip), vehicle: saline 100 % of control

O=C(NC1CC(c2ccccc2)(c2ccccc2)OC1=O)OCc1ccccc1 (configuration not stated)
inactive: [11] 90 % of control | [1] 93 % of control | [3] 90 % of control and 93 % of control | [7] 93 % of control

CC(=O)CC(=O)c1c(-c2ccccc2)[nH]c2ccccc12
inactive: dose: 25.0 mg/kg/injection, schedule: Q04DX003 (ip), vehicle: saline + alcohol 100 % of control | dose: 50.0 mg/kg/injection, schedule: Q04DX003 (ip), vehicle: saline + alcohol 102 % of control | dose: 100.0 mg/kg/injection, schedule: Q04DX003 (ip), vehicle: saline + alcohol 107 % of control and 96 % of control

CN1C2CCC1C1N=NN(c3cc(C(F)(F)F)cc(C(F)(F)F)c3)C1(N1CCOCC1)C2 (configuration not stated)
inactive: dose: 50.0 mg/kg/injection, schedule: Q01DX005 (ip), vehicle: Klucel + Tween-80 102 % of control | dose: 100.0 mg/kg/injection, schedule: Q01DX005 (ip), vehicle: Klucel + Tween-80 97 % of control

NCC(=O)O.[Cl][Ga]([Cl])[Cl]
inactive: dose: 66.0 mg/kg/injection, schedule: Q01DX009 (ip), vehicle: saline 110 % of control | [13] 110 % of control | dose: 100.0 mg/kg/injection, schedule: Q04DX003 (ip), vehicle: saline sonified 104 % of control | dose: 150.0 mg/kg/injection, schedule: Q01DX009 (ip), vehicle: saline 120 % of control

CCS(=O)(=O)OCCF
inactive: dose: 0.78 mg/kg/injection, schedule: Q01DX009 (ip), vehicle: saline with Tween-80 106 % of control | [15] 111 % of control | dose: 3.12 mg/kg/injection, schedule: Q01DX009 (ip), vehicle: saline with Tween-80 106 % of control and 91 % of control

NC(=O)c1ccccc1NCCc1ccccc1
inactive: [2] 91 % of control | [4] 100 % of control | [6] 104 % of control and 97 % of control | dose: 400.0 mg/kg/injection, schedule: Q04DX003 (ip), vehicle: saline with Tween-80 97 % of control

CC1=C(c2ccccc2)OC(c2ccccc2)=C[P+]1(c1ccccc1)c1ccccc1
inactive: dose: 1.56 mg/kg/injection, schedule: Q01DX005 (ip), vehicle: saline 105 % of control | dose: 3.12 mg/kg/injection, schedule: Q01DX005 (ip), vehicle: saline 110 % of control

CC1=CC(=NN=c2cc(C)n([O-])c(C)c2)C=C(C)[N+]1=O
inactive: dose: 25.0 mg/kg/injection, schedule: Q01DX009 (ip), vehicle: saline 118 % of control

CCCC1CC[N-]CC1.CCCC1CC[N-]CC1.[Br][Pt+2]([Br])([Br])[Br]
inactive: [15] 94 % of control | dose: 3.13 mg/kg/injection, schedule: Q01DX009 (ip), vehicle: saline with Tween-80 87 % of control | [12] 95 % of control | [11] 98 % of control | [1] 123 % of control

O=S1C2CCC(Br)C1CCC2Br (configuration not stated)
inactive: dose: 0.39 mg/kg/injection, schedule: Q04DX002 (ip), vehicle: saline + alcohol 105 % of control | dose: 0.78 mg/kg/injection, schedule: Q04DX002 (ip), vehicle: saline + alcohol 100 % of control | dose: 1.56 mg/kg/injection, schedule: Q04DX002 (ip), vehicle: saline + alcohol 101 % of control

CC(=O)OC1C=CCC2C(=O)C34CC=CC(OC(C)=O)C3(C(=O)c3ccccc3C4=O)C(=O)C12 (configuration not stated)
inactive: [12] 103 % of control | [11] 101 % of control | [1] 120 % of control | [3] 116 % of control | [5] 116 % of control

CCCC(=O)NNCN1C(=O)c2ccccc2C1=O
inactive: dose: 50.0 mg/kg/injection, schedule: Q01DX005 (ip), vehicle: Klucel (hydroxypropylcellulose) (HPC) 89 % of control | dose: 100.0 mg/kg/injection, schedule: Q01DX005 (ip), vehicle: Klucel (hydroxypropylcellulose) (HPC) 86 % of control | dose: 200.0 mg/kg/injection, schedule: Q01DX005 (ip), vehicle: Klucel (hydroxypropylcellulose) (HPC) 93 % of control

O=C(NC(Cc1ccccc1)C(=O)CCl)OCc1ccccc1 (configuration not stated)
inactive: dose: 25.0 mg/kg/injection, schedule: Q01DX009 (ip), vehicle: other 107 % of control | [2] 115 % of control | dose: 50.0 mg/kg/injection, schedule: Q01DX009 (ip), vehicle: other 105 % of control | [4] 111 % of control | [6] 119 % of control
